Data reported in US12679848B2, “Plasma kallikrein inhibitors” (Merck Sharp & Dohme LLC, priority 2020, dated 2026).
pIC50: −log10 of the molar value.

Experiments:
human factor XIa = human factor XIa (Homo sapiens, UniProt P03951); test: Factor XIa Assay; type: biochemical; conditions: human factor XIa 0.04 nM, substrate GPR-AFC, 30 min pre-incubation, 25° C., pH 7.4; read-out: FXIa IC50
Experimental: (§1) The effectiveness of a compound of the present invention as an inhibitor of Coagulation factor XIa can be determined using a relevant purified serine protease, and an appropriate synthetic substrate. The rate of hydrolysis of the chromogenic or fluorogenic substrate by the relevant serine protease was measured both in the absence and presence of compounds of the present invention. Assays were conducted at rt or at 37° C. […] A decrease in the rate of fluorescence change in the presence of inhibitor is indicative of enzyme inhibition. Such methods are known to one skilled in the art. The results of this assay are expressed as the half-maximal inhibitory concentrations (IC50), or the inhibitory constant, Ki.
Compounds were pre-incubated for 30 min at 25° C. with human (0.04 nM) factor XIa in 50 mM HEPES buffer with 150 mM sodium chloride, 5 mM calcium chloride, 0.1% PEG 8000, pH 7.4. factor XIa enzymatic activity was determined by addition of the substrate glycine-proline-arginine-7-amido-4-trifluoromethylcoumarin (GPR-AFC) and measurement of the fluorescence at 400/505 nm after a 60 min incubation at 25° C. The % inhibition for each data point was calculated from the data and analyzed using the log (inhibitor) vs. response four parameters equation to determine the half-maximal inhibitory concentrations (IC50). The IC50 were converted to equilibrium inhibitory constants (Ki) using the Cheng-Prusoff equation.

Human plasma kallikrein = target: T1, Human plasma kallikrein (Homo sapiens, UniProt P03952); test: Plasma Kallikrein Assay; type: biochemical; conditions: purified Human plasma kallikrein 0.5 nM, substrate Acetyl-K-P-R-AFC, HEPES pH 7.4; read-out: PKal IC50
T1 construct: yields a heavy chain (371 amino acids) and a light chain (248 amino acids); The active site of plasma kallikrein is contained in the light chain; purchased Enzyme Research Laboratories
T1 sequence (P03952 391-638 limits assumed): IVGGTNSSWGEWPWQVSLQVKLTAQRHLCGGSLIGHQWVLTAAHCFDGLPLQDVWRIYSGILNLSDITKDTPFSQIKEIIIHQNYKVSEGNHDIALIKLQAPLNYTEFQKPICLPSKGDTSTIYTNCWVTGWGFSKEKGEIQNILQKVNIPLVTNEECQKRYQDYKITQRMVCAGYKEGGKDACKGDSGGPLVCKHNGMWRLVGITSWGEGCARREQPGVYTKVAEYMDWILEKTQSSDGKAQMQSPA
T1 sequence (P03952 20-390 partner limits assumed): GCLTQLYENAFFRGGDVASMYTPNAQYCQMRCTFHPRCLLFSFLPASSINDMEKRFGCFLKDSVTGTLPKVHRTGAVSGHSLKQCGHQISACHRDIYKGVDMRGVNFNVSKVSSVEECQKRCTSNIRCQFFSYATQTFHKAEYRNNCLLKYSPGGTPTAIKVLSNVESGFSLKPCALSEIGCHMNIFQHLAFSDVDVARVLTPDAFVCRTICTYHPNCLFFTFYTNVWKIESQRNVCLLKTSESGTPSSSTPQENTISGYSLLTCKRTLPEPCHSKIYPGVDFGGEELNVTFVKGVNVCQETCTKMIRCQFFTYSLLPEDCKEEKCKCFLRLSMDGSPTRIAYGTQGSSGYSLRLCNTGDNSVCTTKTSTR
Experimental: as §1, with “plasma kallikrein” for “Coagulation factor XIa”
Plasma kallikrein determinations were made in 50 mM HEPES buffer at pH 7.4 containing 150 mM NaCl, 5 mM CaCl2), and 0.1% PEG 8000 (polyethylene glycol; Fisher Scientific). Determinations were made using purified Human plasma kallikrein at a final concentration of 0.5 nM (Enzyme Research Laboratories) and the synthetic substrate, Acetyl-K—P—R-AFC (Sigma #C6608) at a concentration of […].
Times required to achieve equilibration between enzyme and inhibitor were determined in control experiments. […] IC50 was determined by inflection point from a four parameter logistic curve fit. Ki was calculated using the Cheng Prusoff equation, Ki=IC50/[…](1+([S]/Km)).

Chain of human factor XIa (P03951 388-625 limits assumed): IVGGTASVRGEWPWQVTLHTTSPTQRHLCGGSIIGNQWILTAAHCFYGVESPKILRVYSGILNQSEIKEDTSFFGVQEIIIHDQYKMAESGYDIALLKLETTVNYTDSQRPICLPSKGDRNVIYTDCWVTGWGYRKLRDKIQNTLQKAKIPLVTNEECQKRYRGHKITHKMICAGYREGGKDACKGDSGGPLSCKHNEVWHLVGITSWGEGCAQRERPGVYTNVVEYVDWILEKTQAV
Chain of human factor XIa (P03951 19-387 partner limits assumed): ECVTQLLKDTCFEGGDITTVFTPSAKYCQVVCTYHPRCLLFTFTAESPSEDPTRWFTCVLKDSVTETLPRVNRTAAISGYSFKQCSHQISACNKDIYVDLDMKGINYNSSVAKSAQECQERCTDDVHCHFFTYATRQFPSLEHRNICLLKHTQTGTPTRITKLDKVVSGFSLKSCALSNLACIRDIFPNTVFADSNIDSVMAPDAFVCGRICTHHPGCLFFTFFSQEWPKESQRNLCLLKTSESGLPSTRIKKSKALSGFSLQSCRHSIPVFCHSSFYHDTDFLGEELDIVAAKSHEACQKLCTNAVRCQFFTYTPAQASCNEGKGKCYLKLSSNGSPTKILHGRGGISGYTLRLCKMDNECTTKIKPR

Row | SMILES | pIC50 (human factor XIa) | pIC50 (Human plasma kallikrein)
1 | CC[C@@H](n1ncc(C(=O)N2CCC[C@@]3(C2)OC(=O)Nc2ccc(Cl)c(F)c23)c1N)C(F)(F)F (single isomer, unassigned) [Example 3] | 6.98 | –
2 | CC[C@H](n1ncc(C(=O)N2CCC[C@@]3(C2)OC(=O)Nc2ccc(Cl)c(F)c23)c1N)C(F)(F)F (single isomer, unassigned) [Example 4] | 8.05 | –
3 | Nc1c(C(=O)N2CCC[C@@]3(C2)OC(=O)Nc2ccc(Cl)c(F)c23)cnn1C1(C(F)(F)F)CC[C@@H]2C[C@@H]21 (single isomer, unassigned) [Example 56, (R)-1'-(5-Amino-1-((1S,2S or R,5R)-2-(trifluoromethyl)bicyclo[3.1.0]hexan-2-y1)-1H-pyrazole-4-carbonyl)-6-chloro-5-fluorospiro[benzo[d][1,3]oxazine-4,3'-piperidin]-2(1H)-one] | 6.03 | 8.54
4 | CCC(C1CCOCC1)n1ncc(C(=O)N2CCC[C@@]3(C2)OC(=O)Nc2ccc(Cl)c(F)c23)c1N (single isomer, unassigned) [Example 112, (R)-1'-(5-Amino-1-((R or S)-1-(tetrahydro-2H-pyran-4-yl)propyl)-1H-pyrazole-4-carbonyl)-6-chloro-5-fluorospiro[benzo[d][1,3]oxazine-4,3'-piperidin]-2(1H)-one] | 7.21 | 8.66
5 | CCC(C1CCOCC1)n1ncc(C(=O)N2CCC[C@@]3(C2)OC(=O)Nc2ccc(Cl)c(F)c23)c1N (single isomer, unassigned) [Example 113, (R)-1'-(5-Amino-1-((S or R)-1-(tetrahydro-2H-pyran-4-yl)propyl)-1H-pyrazole-4-carbonyl)-6-chloro-5-fluorospiro[benzo[d][1,3]oxazine-4,3'-piperidin]-2(1H)-one] | 8.70 | 9.22
6 | Nc1c(C(=O)N2CCC[C@@]3(C2)OC(=O)Nc2ccc(Cl)c(F)c23)cnn1C(C(F)(F)F)C1(F)CC1 (single isomer, unassigned) [Example 114, (R)-1'-(5-Amino-1-((R or S)-2,2,2-trifluoro-1-(1-fluorocyclopropyl)ethyl)-1H-pyrazole-4-carbonyl)-6-chloro-5-fluorospiro[benzo[d][1,3]oxazine-4,3'-piperidin]-2(1H)-one] | 6.99 | 8.55
7 | Nc1c(C(=O)N2CCC[C@@]3(C2)OC(=O)Nc2ccc(Cl)c(F)c23)cnn1C(C(F)(F)F)C1(F)CC1 (single isomer, unassigned) [Example 115, (R)-1'-(5-Amino-1-((S or R)-2,2,2-trifluoro-1-(1-fluorocyclopropyl)ethyl)-1H-pyrazole-4-carbonyl)-6-chloro-5-fluorospiro[benzo[d][1,3]oxazine-4,3'-piperidin]-2(1H)-one] | 7.38 | 9.22
8 | CCC(c1ccccc1)n1ncc(C(=O)N2CCC[C@@]3(C2)OC(=O)Nc2ccc(Cl)c(F)c23)c1N (single isomer, unassigned) [Example 116, (R)-1'-(5-Amino-1-((S or R)-1-phenylpropyl)-1H-pyrazole-4-carbonyl)-6-chloro-5-fluorospiro[benzo[d][1,3]oxazine-4,3'-piperidin]-2(1H)-one] | 8.40 | 9.15
9 | CCC(c1ccccc1)n1ncc(C(=O)N2CCC[C@@]3(C2)OC(=O)Nc2ccc(Cl)c(F)c23)c1N (single isomer, unassigned) [Example 117, (R)-1'-(5-Amino-1-((R or S)-1-phenylpropyl)-1H-pyrazole-4-carbonyl)-6-chloro-5-fluorospiro[benzo[d][1,3]oxazine-4,3'-piperidin]-2(1H)-one] | 7.52 | 9.05
10 | CC1(n2ncc(C(=O)N3CCC[C@@]4(C3)OC(=O)Nc3ccc(Cl)c(F)c34)c2N)CCS(=O)(=O)C1 (single isomer, unassigned) [Example 118, (R)-1'-(5-Amino-1-((R or S)-3-methyl-1,1-dioxidotetrahydrothiophen-3-y1)-1H-pyrazole-4-carbonyl)-6-chloro-5-fluorospiro[benzo[d][1,3]oxazine-4,3'-piperidin]-2(1H)-one] | 6.00 | 7.62
11 | CC1(n2ncc(C(=O)N3CCC[C@@]4(C3)OC(=O)Nc3ccc(Cl)c(F)c34)c2N)CCS(=O)(=O)C1 (single isomer, unassigned) [Example 119] | 5.84 | 7.68
12 | CC(n1ncc(C(=O)N2CCC[C@@]3(C2)OC(=O)Nc2ccc(Cl)c(F)c23)c1N)C(F)(F)F (single isomer, unassigned) [Example 120, (R)-1'-(5-Amino-1-((R or S)-1,1,1-trifluoropropan-2-y1)-1H-pyrazole-4-carbonyl)-6-chloro-5-fluorospiro[benzo[d][1,3]oxazine-4,3'-piperidin]-2(1H)-one] | 6.66 | 8.37
13 | CC(n1ncc(C(=O)N2CCC[C@@]3(C2)OC(=O)Nc2ccc(Cl)c(F)c23)c1N)C(F)(F)F (single isomer, unassigned) [Example 121, (R)-1'-(5-Amino-1-((S or R)-1,1,1-trifluoropropan-2-y1)-1H-pyrazole-4-carbonyl)-6-chloro-5-fluorospiro[benzo[d][1,3]oxazine-4,3'-piperidin]-2(1H)-one] | 6.23 | 8.31
14 | Nc1c(C(=O)N2CCC[C@@]3(C2)OC(=O)Nc2ccc(Cl)c(F)c23)cnn1C(c1ccccc1)C(F)(F)F (single isomer, unassigned) [Example 122, (R)-1'-(5-Amino-1-((R or S)-2,2,2-trifluoro-1-phenylethyl)-1H-pyrazole-4-carbonyl)-6-chloro-5-fluorospiro[benzo[d][1,3]oxazine-4,3'-piperidin]-2(1H)-one] | 7.02 | 9.00
15 | Nc1c(C(=O)N2CCC[C@@]3(C2)OC(=O)Nc2ccc(Cl)c(F)c23)cnn1C(c1ccccc1)C(F)(F)F (single isomer, unassigned) [Example 123] | 7.13 | 9.05
16 | Nc1c(C(=O)N2CCC[C@@]3(C2)OC(=O)Nc2ccc(Cl)c(F)c23)cnn1C(C1CC1)C(F)(F)F (single isomer, unassigned) [Example 124, (R)-1'-(5-Amino-1-((R or S)-1-cyclopropyl-2,2,2-trifluoroethyl)-1H-pyrazole-4-carbonyl)-6-chloro-5-fluorospiro[benzo[d][1,3]oxazine-4,3'-piperidin]-2(1H)-one] | 7.12 | 8.85
17 | Nc1c(C(=O)N2CCC[C@@]3(C2)OC(=O)Nc2ccc(Cl)c(F)c23)cnn1C(C1CC1)C(F)(F)F (single isomer, unassigned) [Example 125, (R)-1'-(5-Amino-1-((S or R)-1-cyclopropyl-2,2,2-trifluoroethyl)-1H-pyrazole-4-carbonyl)-6-chloro-5-fluorospiro[benzo[d][1,3]oxazine-4,3'-piperidin]-2(1H)-one] | 6.81 | 8.35
18 | Nc1c(C(=O)N2CCC[C@@]3(C2)OC(=O)Nc2ccc(Cl)c(F)c23)cnn1Cc1ccccc1 [Example 8, (R)-1'-(5-Amino-1-benzyl-1H-pyrazole-4-carbonyl)-6-chloro-5-fluorospiro[benzo[d][1,3]oxazine-4,3'-piperidin]-2(1H)-one] | 7.17 | –
19 | Nc1c(C(=O)N2CCC[C@@]3(C2)OC(=O)Nc2ccc(Cl)c(F)c23)cnn1-c1ccccc1 [Example 57, (R)-1'-(5-Amino-1-phenyl-1H-pyrazole-4-carbonyl)-6-chloro-5-fluorospiro[benzo[d][1,3]oxazine-4,3'-piperidin]-2(1H)-one] | 5.38 | –
20 | Nc1c(C(=O)N2CCC[C@@]3(C2)OC(=O)Nc2ccc(Cl)c(F)c23)cnn1-c1ccccc1OC(F)(F)F [Example 72, (R)-1'-(5-Amino-1-(2-(trifluoromethoxy)phenyl)-1H-pyrazole-4-carbonyl)-6-chloro-5-fluorospiro[benzo[d][1,3]oxazine-4,3'-piperidin]-2(1H)-one] | 6.58 | –
